Data set [1] in a line: Stability evaluation in aqueous buffer. The class given is physicochemical. The settings on record: aqueous buffer, 37° C., about 50 μg/mL, about 15% v/v acetonitrile. The method, then:
The stability study of an individual prodrug was conducted with about 50 μg/mL solutions in aqueous buffers of pH 1 (0.1 M HCl), 4 (acetate buffer) and 6.5 (phosphate buffer) at 37° C. for 24 hours. About 15% v/v acetonitrile was used in these pH buffers as a co-solvent to obtain clear solutions of prodrugs. The sample analysis was carried out using a generic reversed phase liquid chromatographic (LC) method with UV detection. The area percent (AP) loss of the prodrug peak was quantified as a function of time. The appearance of parent peak was identified from the chromatographic retention time. The half-life (t1/2, h) of the prodrug was calculated by using a pseudo-first order equation from a AP loss vs time plot.

Data set [2] is described as follows: Solubility evaluation in aqueous buffer. The class given is physicochemical. The settings on record: for solubility: aqueous buffer, 25 °C, thermodynamic from solid, about 24 hours equilibration. The procedure:
The solid powder of an individual prodrug was equilibrated in aqueous buffers of pH 1, 4 and 6.5 at 25° C. for about 24 hours. After equilibration, the excess solid was separated by filtration using 0.45 μm membrane filter and the filtrate was collected in suitable glass vial. The filtrate was diluted appropriately using respective buffers/diluent and analyzed by a reversed phase LC method with UV detection.

Where [3] appears, read: pH 1, pH 1 (0.1 M HCl), read-out: Stability (t1/2, h) at 37° C. pH 1 (converted).
Setting [4] is: pH 4, pH 4 (acetate buffer), read-out: Stability (t1/2, h) at 37° C. pH 4 (converted).
The mark [5] stands for this setting: pH 6.5, pH 6.5 (phosphate buffer), read-out: Stability (t1/2, h) at 37° C. pH 6.5 (converted).
Setting [6] is: pH 1, simulated gastric fluid, aqueous buffer pH 1, 25° C., read-out: Solubility (mg/mL) at 25° C. pH 1.
Where [7] appears, read: pH 4, aqueous buffer, aqueous buffer pH 4, 25° C., read-out: Solubility (mg/mL) at 25° C. pH 4.
[8] abbreviates: pH 6.5, aqueous buffer, aqueous buffer pH 6.5, 25° C., read-out: Solubility (mg/mL) at 25° C. pH 6.5.

Data on seven compounds can be found in US20220213099A1, “PRODRUG COMPOUNDS” (BRISTOL-MYERS SQUIBB COMPANY, priority 2019, published 2022).

The structures appear in SMILES notation. ≈ marks a conversion by molar mass, not a printed value. Where a name gives a salt, the structure may show the parent alone. Read-outs that look alike come from different tables or passages of the source.

For the compound `Cc1c(-c2[nH]c3ccc(C4CC[N+](COC(=O)N(C)CCOP(=O)(O)O)(CC(N)=O)CC4)cc3c2C(C)C)cn2ncnc2c1C` (single isomer, unassigned) [Example 20, 1-(2-Amino-2-oxoethyl)-4-(2-(7,8-dimethyl-[1,2,4]triazolo[1,5-a]pyridin-6-yl)-3-isopropyl-1H-indol-5-yl)-1-(((methyl(2-(phosphonooxy)ethyl)carbamoyl)oxy)methyl) piperidin-1-ium trifluoroacetate], the half-life in data set [1] (setting [3]), in data set [1] (setting [4]) and in data set [1] (setting [5]) was > 500 h in each case. The figures for the solubility in data set [2] (setting [6]), in data set [2] (setting [7]) and in data set [2] (setting [8]) were > 1.16 mg/mL, > 1.87 mg/mL and > 2.08 mg/mL, respectively.

Regarding `Cc1c(-c2c(C(C)C)c3cc(C4CCN(CC(N)=O)CC4)ccc3n2C(=O)OCOC(=O)C2(N)CC2)cn2ncnc2c1C` [Example 15, ((1-Aminocyclopropane-1-carbonyl)oxy)methyl 5-(1-(2-amino-2-oxoethyl)piperidin-4-yl)-2-(7,8-dimethyl-[1,2,4]triazolo[1,5-a]pyridin-6-yl)-3-isopropyl-1H-indole-1-carboxylate trifluoroacetate], the half-life in data set [1] (setting [3]) was 347 h; in data set [1] (setting [4]), 139 h; in data set [1] (setting [5]), 39 h. Also, the figures for the solubility in data set [2] (setting [6]), in data set [2] (setting [7]) and in data set [2] (setting [8]) were > 0.94 mg/mL, > 0.9 mg/mL and 0.8 mg/mL, respectively.

Take `CNCC(=O)OCc1cccnc1N(C)C(=O)OC[N+]1(CC(N)=O)CCC(c2ccc3[nH]c(-c4cn5ncnc5c(C)c4C)c(C(C)C)c3c2)CC1` (stereo not shown) [Example 12, 1-(2-Amino-2-oxoethyl)-4-(2-(7,8-dimethyl-[1,2,4]triazolo[1,5-a]pyridin-6-yl)-3-isopropyl-1H-indol-5-yl)-1-(((methyl(3-(((methylglycyl)oxy)methyl)pyridin-2-yl)carbamoyl)oxy)methyl)piperidin-1-ium ditrifluoroacetate]: the half-life in data set [1] (setting [3]) is > 500 h; in data set [1] (setting [4]) it was 99 h; in data set [1] (setting [5]), 1.6 h.

On to `Cc1c(-c2c(C(C)C)c3cc(C4CCN(CC(N)=O)CC4)ccc3n2C(=O)OCOP(=O)(O)O)cn2ncnc2c1C` [Example 16, (Phosphonooxy)methyl 5-(1-(2-amino-2-oxoethyl)piperidin-4-yl)-2-(7,8-dimethyl-[1,2,4]triazolo[1,5-a]pyridin-6-yl)-3-isopropyl-1H-indole-1-carboxylate], for which the values for the half-life in data set [1] (setting [3]), in data set [1] (setting [4]) and in data set [1] (setting [5]) were 80 h, 7.5 h and 0.1 h, respectively.

As for `Cc1c(-c2[nH]c3ccc(C4CCN(CC(N)=O)CC4)cc3c2C(C)C)cn2ncnc2c1C` [Compound A, 2-(4-(2-(7,8-dimethyl-[1,2,4]triazolo[1,5-a]pyridin-6-yl)-3-isopropyl-1H-indol-5-yl)piperidin-1-yl)acetamide, reference compound], the solubility in data set [2] (setting [6]) was 1.56 mg/mL (≈ 3510 µM); in data set [2] (setting [7]), 0.05 mg/mL (≈ 112 µM); in data set [2] (setting [8]) it was < 0.01 mg/mL. In addition, the “pH dependence of aqueous solubility” value in data set [2] (pH of 1 versus pH of 4 or pH of 6) is recorded as “higher solubility at pH of 1 than at pH of 4 or pH of 6”.

For `CNCC(=O)OCc1cccnc1N(C)C(=O)OC[n+]1cnn2cc(-c3[nH]c4ccc(C5CCN(CC(N)=O)CC5)cc4c3C(C)C)c(C)c(C)c21` [Example 13, 6-(5-(1-(2-Amino-2-oxoethyl)piperidin-4-yl)-3-isopropyl-1H-indol-2-yl)-7,8-dimethyl-1-(((methyl(3-(((methylglycyl)oxy)methyl)pyridin-2-yl)carbamoyl)oxy)methyl)-[1,2,4]triazolo[1,5-a]pyridin-1-ium tritrifluoroacetate], the half-life in data set [1] (setting [3]) is 459 h; in data set [1] (setting [4]), 99 h; in data set [1] (setting [5]), 2.5 h.

With `Cc1c(-c2c(C(C)C)c3cc(C4CCN(CC(N)=O)CC4)ccc3n2P(=O)(O)O)cn2ncnc2c1C` [Example 18, (5-(1-(2-Amino-2-oxoethyl)piperidin-4-yl)-2-(7,8-dimethyl-[1,2,4]triazolo[1,5-a]pyridin-6-yl)-3-isopropyl-1H-indol-1-yl)phosphonate], the results for the half-life in data set [1] (setting [3]), in data set [1] (setting [4]) and in data set [1] (setting [5]) were 6.4 h, 2.9 h and 6.3 h, respectively.
